Columns and labels:
[1] = molecular target: Serine/threonine-protein kinase mTOR (Homo sapiens) (UniProt P42345); assay: Inhibition of mTOR (unknown origin) assessed as p70S6K phosphorylation after 30 mins by ELISA
[2] = system: HL-60; assay: Cytotoxicity against human HL60 cells assessed as growth inhibition at 100 uM after 24 to 48 hrs by MTT assay relative to control; type: functional; conditions: read-out: GI
[3] = cells; conditions: Homo sapiens, MIA PaCa-2, 48 h
Description: Cytotoxicity against human MIAPaCa2 cells assessed as inhibition of cell proliferation after 48 hrs by MTT assay

[4] = system: HepG2; assay: Cytotoxicity against human HepG2 cells assessed as growth inhibition at 30 uM after 24 to 48 hrs by MTT assay relative to control; type: functional; conditions: read-out: GI
[5] = Cytotoxicity against human MIAPaCa2 cells assessed as growth inhibition at 10 uM after 24 to 48 hrs by MTT assay relative to control; type: functional; conditions: MIA PaCa-2, read-out: GI
[6] = system: HL-60; assay: cells; conditions: Homo sapiens, HL-60, 48 h
Description: Cytotoxicity against human HL60 cells assessed as inhibition of cell proliferation after 48 hrs by MTT assay

[7] = system: HL-60; assay: Cytotoxicity against human HL60 cells assessed as growth inhibition at 30 uM after 24 to 48 hrs by MTT assay relative to control; type: functional; conditions: read-out: GI
[8] = system: HL-60; assay: Cytotoxicity against human HL60 cells assessed as growth inhibition at 10 uM after 24 to 48 hrs by MTT assay relative to control; type: functional; conditions: read-out: GI
[9] = system: HepG2; assay: Cytotoxicity against human HepG2 cells assessed as growth inhibition at 100 uM after 24 to 48 hrs by MTT assay relative to control; type: functional; conditions: read-out: GI
[10] = Cytotoxicity against human MIAPaCa2 cells assessed as growth inhibition at 30 uM after 24 to 48 hrs by MTT assay relative to control; type: functional; conditions: MIA PaCa-2, read-out: GI
[11] = system: HCT-116; assay: Cytotoxicity against human HCT116 cells assessed as growth inhibition at 100 uM after 24 to 48 hrs by MTT assay relative to control; type: functional; conditions: read-out: GI
[12] = system: HepG2; assay: Cytotoxicity against human HepG2 cells assessed as growth inhibition at 10 uM after 24 to 48 hrs by MTT assay relative to control; type: functional; conditions: read-out: GI
[13] = system: HepG2; assay: cells; conditions: Homo sapiens, HepG2, 48 h
Description: Cytotoxicity against human HepG2 cells assessed as inhibition of cell proliferation after 48 hrs by MTT assay

[14] = system: PC-3; assay: Cytotoxicity against human PC3 cells assessed as growth inhibition at 30 uM after 24 to 48 hrs by MTT assay relative to control; type: functional; conditions: read-out: GI
[15] = system: HCT-116; assay: cells; conditions: Homo sapiens, HCT-116, 48 h
Description: Cytotoxicity against human HCT116 cells assessed as inhibition of cell proliferation after 48 hrs by MTT assay

[16] = system: PC-3; assay: Cytotoxicity against human PC3 cells assessed as growth inhibition at 10 uM after 24 to 48 hrs by MTT assay relative to control; type: functional; conditions: read-out: GI
[17] = system: PC-3; assay: cells; conditions: Homo sapiens, PC-3, 48 h
Description: Cytotoxicity against human PC3 cells assessed as inhibition of cell proliferation after 48 hrs by MTT assay

[18] = system: PC-3; assay: Cytotoxicity against human PC3 cells assessed as growth inhibition at 100 uM after 24 to 48 hrs by MTT assay relative to control; type: functional; conditions: read-out: GI
[19] = system: HCT-116; assay: Cytotoxicity against human HCT116 cells assessed as growth inhibition at 30 uM after 24 to 48 hrs by MTT assay relative to control; type: functional; conditions: read-out: GI
[20] = system: HCT-116; assay: Cytotoxicity against human HCT116 cells assessed as growth inhibition at 10 uM after 24 to 48 hrs by MTT assay relative to control; type: functional; conditions: read-out: GI
[21] = Cytotoxicity against human MIAPaCa2 cells assessed as growth inhibition at 100 uM after 24 to 48 hrs by MTT assay relative to control; type: functional; conditions: MIA PaCa-2, read-out: GI

## COC[C@H]1OC(=O)c2coc3c2[C@@]1(C)C1=C(C3=O)[C@@H]2CCC(=O)[C@@]2(C)C[C@H]1OC(C)=O
[1]
  inhibition: 100%

## O=[N+]([O-])c1ccc(S(=O)(=O)N(c2ccccc2)c2ccnc3ccc(-c4ccc(O)cc4)cc23)cc1
[2]
  inhibition of growth at 100 µM: 89%
[3]
  IC50: 25 µM
[4]
  inhibition of growth at 30 µM: 76%
[5]
  inhibition of growth at 10 µM: 21%
[6]
  IC50: < 10 µM
[7]
  inhibition of growth at 30 µM: 87%
[8]
  inhibition of growth at 10 µM: 86%
[9]
  inhibition of growth at 100 µM: 84%
[10]
  inhibition of growth at 30 µM: 59%
[11]
  inhibition of growth at 100 µM: 58%
[12]
  inhibition of growth at 10 µM: 8%
[13]
  IC50: 22 µM
[14]
  inhibition of growth at 30 µM: 30%
[15]
  IC50: 90 µM
[16]
  inhibition of growth at 10 µM: 4%
[17]
  IC50: > 100 µM
[18]
  inhibition of growth at 100 µM: 47%
[19]
  inhibition of growth at 30 µM: 4%
[20]
  inhibition of growth at 10 µM: 2%
[21]
  inhibition of growth at 100 µM: 81%

## O=S(=O)(c1ccccc1)N(c1ccccc1)c1ccnc2ccc(-c3ccc(O)cc3)cc12
[2]
  inhibition of growth at 100 µM: 91%
[3]
  IC50: < 10 µM
[4]
  inhibition of growth at 30 µM: 90%
[5]
  inhibition of growth at 10 µM: 80%
[6]
  IC50: < 10 µM
[7]
  inhibition of growth at 30 µM: 89%
[8]
  inhibition of growth at 10 µM: 87%
[9]
  inhibition of growth at 100 µM: 91%
[10]
  inhibition of growth at 30 µM: 84%
[11]
  inhibition of growth at 100 µM: 89%
[12]
  inhibition of growth at 10 µM: 40%
[13]
  IC50: 12 µM
[14]
  inhibition of growth at 30 µM: 61%
[15]
  IC50: 28 µM
[16]
  inhibition of growth at 10 µM: 15%
[17]
  IC50: 25 µM
[18]
  inhibition of growth at 100 µM: 76%
[19]
  inhibition of growth at 30 µM: 57%
[20]
  inhibition of growth at 10 µM: 8%
[21]
  inhibition of growth at 100 µM: 87%

## O=S(=O)(c1ccc2c(c1)OCCO2)N(c1ccccc1)c1ccnc2ccc(-c3ccc(O)cc3)cc12
[2]
  inhibition of growth at 100 µM: 90%
[3]
  IC50: < 10 µM
[4]
  inhibition of growth at 30 µM: 87%
[5]
  inhibition of growth at 10 µM: 79%
[6]
  IC50: < 10 µM
[7]
  inhibition of growth at 30 µM: 90%
[8]
  inhibition of growth at 10 µM: 87%
[9]
  inhibition of growth at 100 µM: 88%
[10]
  inhibition of growth at 30 µM: 84%
[11]
  inhibition of growth at 100 µM: 68%
[12]
  inhibition of growth at 10 µM: 46%
[13]
  IC50: 12 µM
[14]
  inhibition of growth at 30 µM: 38%
[15]
  IC50: 70 µM
[16]
  inhibition of growth at 10 µM: 27%
[17]
  IC50: 65 µM
[18]
  inhibition of growth at 100 µM: 62%
[19]
  inhibition of growth at 30 µM: 26%
[20]
  inhibition of growth at 10 µM: 17%
[21]
  inhibition of growth at 100 µM: 86%

## O=S(=O)(c1ccc(F)cc1)N(c1ccccc1)c1ccnc2ccc(-c3ccc(O)cc3)cc12
[2]
  inhibition of growth at 100 µM: 79%
[3]
  IC50: 65 µM
[4]
  inhibition of growth at 30 µM: 10%
[5]
  inhibition of growth at 10 µM: 9%
[6]
  IC50: 28 µM
[7]
  inhibition of growth at 30 µM: 51%
[8]
  inhibition of growth at 10 µM: 2%
[9]
  inhibition of growth at 100 µM: 60%
[10]
  inhibition of growth at 30 µM: 30%
[11]
  inhibition of growth at 100 µM: 92%
[12]
  inhibition of growth at 10 µM: 1%
[13]
  IC50: 85 µM
[14]
  inhibition of growth at 30 µM: 43%
[15]
  IC50: 27 µM
[16]
  inhibition of growth at 10 µM: 16%
[17]
  IC50: 42 µM
[18]
  inhibition of growth at 100 µM: 87%
[19]
  inhibition of growth at 30 µM: 57%
[20]
  inhibition of growth at 10 µM: 20%
[21]
  inhibition of growth at 100 µM: 70%

## CC(C)(C)c1ccc(S(=O)(=O)N(c2ccccc2)c2ccnc3ccc(-c4ccc(O)cc4)cc23)cc1
[2]
  inhibition of growth at 100 µM: 93%
[3]
  IC50: < 10 µM
[4]
  inhibition of growth at 30 µM: 89%
[5]
  inhibition of growth at 10 µM: 79%
[6]
  IC50: < 10 µM
[7]
  inhibition of growth at 30 µM: 89%
[8]
  inhibition of growth at 10 µM: 76%
[9]
  inhibition of growth at 100 µM: 98%
[10]
  inhibition of growth at 30 µM: 85%
[11]
  inhibition of growth at 100 µM: 83%
[12]
  inhibition of growth at 10 µM: 14%
[13]
  IC50: 18 µM
[14]
  inhibition of growth at 30 µM: 45%
[15]
  IC50: 31 µM
[16]
  inhibition of growth at 10 µM: 21%
[17]
  IC50: 44 µM
[18]
  inhibition of growth at 100 µM: 70%
[19]
  inhibition of growth at 30 µM: 35%
[20]
  inhibition of growth at 10 µM: 20%
[21]
  inhibition of growth at 100 µM: 90%

## COc1ccc(S(=O)(=O)N(c2ccccc2)c2ccnc3ccc(-c4ccc(O)cc4)cc23)cc1
[2]
  inhibition of growth at 100 µM: 89%
[3]
  IC50: < 10 µM
[4]
  inhibition of growth at 30 µM: 78%
[5]
  inhibition of growth at 10 µM: 63%
[6]
  IC50: < 10 µM
[7]
  inhibition of growth at 30 µM: 87%
[8]
  inhibition of growth at 10 µM: 63%
[9]
  inhibition of growth at 100 µM: 86%
[10]
  inhibition of growth at 30 µM: 81%
[11]
  inhibition of growth at 100 µM: 79%
[12]
  inhibition of growth at 10 µM: 20%
[13]
  IC50: 20 µM
[14]
  inhibition of growth at 30 µM: 39%
[15]
  IC50: 50 µM
[16]
  inhibition of growth at 10 µM: 15%
[17]
  IC50: 65 µM
[18]
  inhibition of growth at 100 µM: 61%
[19]
  inhibition of growth at 30 µM: 39%
[20]
  inhibition of growth at 10 µM: 10%
[21]
  inhibition of growth at 100 µM: 86%

## O=C(c1ccccc1F)N(c1ccccc1)c1ccnc2ccc(-c3ccc(O)cc3)cc12
[2]
  inhibition of growth at 100 µM: 94%
[3]
  IC50: 15 µM
[4]
  inhibition of growth at 30 µM: 84%
[5]
  inhibition of growth at 10 µM: 36%
[6]
  IC50: < 10 µM
[7]
  inhibition of growth at 30 µM: 93%
[8]
  inhibition of growth at 10 µM: 55%
[9]
  inhibition of growth at 100 µM: 87%
[10]
  inhibition of growth at 30 µM: 90%
[11]
  inhibition of growth at 100 µM: 88%
[12]
  inhibition of growth at 10 µM: 22%
[13]
  IC50: 18 µM
[14]
  inhibition of growth at 30 µM: 65%
[15]
  IC50: 52 µM
[16]
  inhibition of growth at 10 µM: 27%
[17]
  IC50: 22 µM
[18]
  inhibition of growth at 100 µM: 88%
[19]
  inhibition of growth at 30 µM: 32%
[20]
  inhibition of growth at 10 µM: 26%
[21]
  inhibition of growth at 100 µM: 90%

From ChEMBL document CHEMBL3593172, “4-(N-Phenyl-N'-substituted benzenesulfonyl)-6-(4-hydroxyphenyl)quinolines as inhibitors of mammalian target of rapamycin” (Bioorg Med Chem, 2015)
